{"source": "BindingDB's records for doi:10.1074/jbc.M511827200", "about": "(Merck Frosst Center For Therapeutic Research, 2006)", "assay_in_all_cases": "PTP1B and TCPTP Inhibition Assay", "settings_in_all_cases": "pH 6.3; 22 °C", "key": {"[1]": {"molecular_target": "Tyrosine-protein phosphatase non-receptor type 1 [L119V] (Homo sapiens, UniProt P18031, L119V)", "sequence (P18031 1-298 L119V)": "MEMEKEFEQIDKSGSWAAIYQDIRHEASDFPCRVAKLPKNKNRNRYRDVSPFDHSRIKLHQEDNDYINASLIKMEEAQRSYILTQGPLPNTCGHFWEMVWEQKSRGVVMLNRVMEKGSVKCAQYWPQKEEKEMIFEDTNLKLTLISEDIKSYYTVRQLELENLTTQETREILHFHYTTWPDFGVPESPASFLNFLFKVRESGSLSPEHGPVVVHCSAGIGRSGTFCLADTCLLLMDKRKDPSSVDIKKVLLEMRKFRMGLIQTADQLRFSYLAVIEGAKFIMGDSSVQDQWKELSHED"}, "[2]": {"molecular_target": "Tyrosine-protein phosphatase non-receptor type 2 [V121L] (Homo sapiens, UniProt P17706, V121L)", "sequence (P17706 as listed by the source V121L)": "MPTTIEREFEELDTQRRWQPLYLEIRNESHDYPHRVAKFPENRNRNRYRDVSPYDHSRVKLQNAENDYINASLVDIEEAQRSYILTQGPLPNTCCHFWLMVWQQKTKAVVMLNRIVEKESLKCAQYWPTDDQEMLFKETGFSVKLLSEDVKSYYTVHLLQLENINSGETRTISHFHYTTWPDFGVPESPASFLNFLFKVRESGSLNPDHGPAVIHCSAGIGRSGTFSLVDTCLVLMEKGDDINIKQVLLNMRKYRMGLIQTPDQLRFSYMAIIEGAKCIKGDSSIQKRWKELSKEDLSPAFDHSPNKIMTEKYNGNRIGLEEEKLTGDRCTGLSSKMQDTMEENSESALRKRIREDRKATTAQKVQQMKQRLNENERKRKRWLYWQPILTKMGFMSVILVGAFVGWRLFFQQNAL"}, "[3]": {"molecular_target": "T1, Tyrosine-protein phosphatase non-receptor type 2 (Homo sapiens, UniProt P17706)", "T1 sequence (P17706 whole entry)": "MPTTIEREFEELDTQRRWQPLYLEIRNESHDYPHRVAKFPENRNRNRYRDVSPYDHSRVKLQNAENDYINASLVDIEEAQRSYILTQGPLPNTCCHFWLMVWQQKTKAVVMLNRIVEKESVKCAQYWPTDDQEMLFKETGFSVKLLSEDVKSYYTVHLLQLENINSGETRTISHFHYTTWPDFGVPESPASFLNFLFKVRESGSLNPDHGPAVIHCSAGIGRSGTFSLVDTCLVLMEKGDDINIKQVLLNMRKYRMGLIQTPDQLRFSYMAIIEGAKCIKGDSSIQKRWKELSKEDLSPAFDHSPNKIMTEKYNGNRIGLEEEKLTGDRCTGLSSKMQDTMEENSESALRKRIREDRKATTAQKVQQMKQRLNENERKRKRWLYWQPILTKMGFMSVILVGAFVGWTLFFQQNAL"}, "[4]": {"molecular_target": "T2, Tyrosine-protein phosphatase non-receptor type 1 [1-298] (Homo sapiens, UniProt P18031)", "T2 construct": "1-298", "T2 sequence (P18031 whole entry)": "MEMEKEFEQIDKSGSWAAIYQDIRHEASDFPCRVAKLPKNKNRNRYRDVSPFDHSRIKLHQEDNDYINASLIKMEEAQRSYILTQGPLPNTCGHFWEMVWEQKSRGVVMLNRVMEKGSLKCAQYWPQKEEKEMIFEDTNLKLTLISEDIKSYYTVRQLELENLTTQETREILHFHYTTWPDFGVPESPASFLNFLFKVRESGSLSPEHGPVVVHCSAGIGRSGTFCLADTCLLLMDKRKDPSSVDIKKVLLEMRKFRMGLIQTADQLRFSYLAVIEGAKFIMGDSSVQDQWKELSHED"}}, "data": [{"smiles": "Cc1noc(-c2ccc(C(C/C=C/c3ccccc3)(Cc3ccc(C(F)(F)P(=O)(O)O)cc3)C(=O)c3ccc(F)cc3)cc2)n1", "note": "(stereo not drawn) [[difluoro({4-[3-(4-fluorophenyl)-2-[4-(3-methyl-1,2,4-oxadiazol-5-yl)phenyl]-3-oxo-2-[(2E)-3-phenylprop-2-en-1-yl]propyl]phenyl})methyl]phosphonic acid]", "values": [{"measurement": "IC50", "setting": "[1]", "result": 1900, "unit": "nM"}, {"measurement": "IC50", "setting": "[2]", "result": 138, "unit": "nM"}, {"measurement": "IC50", "setting": "[3]", "result": 1600, "unit": "nM"}, {"measurement": "IC50", "setting": "[4]", "result": 163, "unit": "nM"}]}, {"smiles": "COC(=O)c1ccc([C@@](C/C=C/c2ccccc2)(Cc2ccc(C(F)(F)P(=O)(O)O)cc2)n2nnc3ccccc32)cc1", "note": "[({4-[(4E)-2-(1H-1,2,3-benzotriazol-1-yl)-2-[4-(methoxycarbonyl)phenyl]-5-phenylpent-4-en-1-yl]phenyl}difluoromethyl)phosphonic acid]", "values": [{"measurement": "IC50", "setting": "[2]", "result": 24, "unit": "nM"}, {"measurement": "IC50", "setting": "[3]", "result": 87, "unit": "nM"}]}, {"smiles": "O=P(O)(O)C(F)(F)c1ccc(CC(C/C=C/c2ccccc2)(c2ccccc2)n2nnc3ccccc32)cc1", "note": "(stereo not drawn) [({4-[(4E)-2-(1H-1,2,3-benzotriazol-1-yl)-2,5-diphenylpent-4-en-1-yl]phenyl}difluoromethyl)phosphonic acid]", "values": [{"measurement": "IC50", "setting": "[3]", "result": 95, "unit": "nM"}, {"measurement": "IC50", "setting": "[4]", "result": 109, "unit": "nM"}]}]}
